Measurements from patent US12171777B2, “Methods of making a cyclic dinucleotide” (TAKEDA PHARMACEUTICAL COMPANY LIMITED, priority 2016, dated 2024).
Counter-ions that a name gives are not always drawn.

What was measured:
[1] = Human plasma stability assay; assay type: in vitro ADME; conditions: elimination rate constant k; heparinized human plasma, 37° C., 0-24 hours
Procedure: The compound was incubated in heparinized human plasma at 37° C. for 0, 1, 2, 4, 8 and 24 hours, and the change in compound concentration was measured by LC/MS/MS method. The elimination rate constant (=k(/h)) was calculated based on the fitted curve assuming the exponential decrease of concentration as follows; concentration at time x=initial concentration*exp(−k*x).

CT-26 mouse tumor cells = assay: Anti-tumor effect in CT-26 syngeneic mice model; assay type: in vivo; conditions: Balb/C mice; intravenous q3dx3; Ex3a 30 mg/kg, Ex14 1.0 mg/kg
Procedure: (§1) Ex14 and Ex3a were tested in syngeneic tumor models in mice. […] See FIG. 8 and FIG. 9 for the anti-tumor effect colon carcinoma CT-26 syngeneic mice model, and FIG. 10 and FIG. 11 for the anti-tumor effect in the […] B16F10 syngeneic mice model.
(§2) 8×10^4 B16F10 and 2×10^5 CT-26 mouse tumor cells were subcutaneously implanted in the flank of female C57BL/6 (B16F10) and Balb/C (CT-26) mice (n=7 per group). Vehicle (1×PBS), compound Ex3a (30 mg/kg) or Ex14 (1.0 mg/kg) were intravenously administered (final volume of 100 μL) to tumor-bearing mice once the tumor volume has reached 100 mm^3 (Day 0). Vehicle, Ex3a or Ex14 were given every 3 days for a total of 3 doses (q3dx3). Tumor and body weight measurements were taken three times per week using vernier calipers and mettler scale, respectively. Tumor volumes were determined by multiplying the square of the width (‘W’), measured along the short axis of the tumor, by one-half the length (‘L’) measured along the […]

B16F10 mouse tumor cells = assay: Anti-tumor effect in B16F10 syngeneic mice model; assay type: in vivo; conditions: C57BL/6 mice; intravenous q3dx3; Ex3a 30 mg/kg, Ex14 1.0 mg/kg
Procedure: as §1, §2

[2] = target: WT STING (human wild-type TMEM173 (H232R)) (Homo sapiens (Human), UniProt Q86WV6, H232R); assay: Reporter Gene Assay (2): ISRE NanoLuc reporter in STING-transfected 293T cells, with digitonin; assay type: cell-based; conditions: HEK-293T, 2′,3′-cGAMP (30 μM) = 100%, solvent = 0%, read-out: activity level against WT STING of test compound (30 μM)
WT STING (human wild-type TMEM173 (H232R)), sequence (Q86WV6 whole entry H232R): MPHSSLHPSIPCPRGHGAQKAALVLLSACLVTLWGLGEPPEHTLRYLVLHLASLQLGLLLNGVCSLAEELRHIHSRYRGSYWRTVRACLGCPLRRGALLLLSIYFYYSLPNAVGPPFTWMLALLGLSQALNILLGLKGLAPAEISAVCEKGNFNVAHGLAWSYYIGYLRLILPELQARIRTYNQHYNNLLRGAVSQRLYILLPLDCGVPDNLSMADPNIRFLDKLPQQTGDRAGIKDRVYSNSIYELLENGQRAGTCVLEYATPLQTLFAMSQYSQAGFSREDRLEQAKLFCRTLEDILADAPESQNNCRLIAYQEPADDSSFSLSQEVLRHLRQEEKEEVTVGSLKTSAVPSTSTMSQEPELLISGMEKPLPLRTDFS
Procedure: The culture solution was removed, and the test compound diluted with assay buffer (50 mM HEPES pH 7.0, 100 mM KCl, 3 mM MgCl2, 85 mM Sucrose, 0.1 mM DTT, 0.2% BSA, 1 mM ATP, 0.1 mM GTP, 10 μg/ml Digitonin) was added thereto by 15 μL/well. The cells were cultured at 37° C. under 5% CO2 condition for 30 min, and the assay buffer was removed. Dulbecco's Modified Eagle's Medium (DMEM) (Wako Pure Chemical Industries, Ltd.) containing 10% fetal bovine serum was added thereto by 20 μL/well, and the cells were cultured at 37° C. under 5°%° CO2 condition for 4 hr. Luminescence signals derived from firefly luciferase and NanoLuc Luciferase were each measured using EnVision (PerkinElmer, Waltham, MA, US) according to Nano-Glo Dual-Luciferase Reporter Assay System (Promega, Fitchburg, WI, US) protocol. The ratio of the count of NanoLuc Luciferase divided by the count of firefly luciferase was used for calculation. The activity level of each test compound was calculated when the ratio in the cells treated with 2′,3′-cGAMP (30 μM) was considered as 100%, and the ratio in the cells treated with the solvent was considered as 0%.

SMILES	Human plasma stability [1] [h⁻¹]	anti-tumor effect, CT-26 syngeneic mice model (CT-26 mouse tumor cells)	anti-tumor effect, B16F10 syngeneic mice model (B16F10 mouse tumor cells)	activation at 30 µM [2] [%]
Nc1ncnc2c1ncn2[C@@H]1O[C@@H]2COP(=O)(O)O[C@@H]3[C@H](O)[C@@H](COP(=O)(S)O[C@H]2[C@H]1F)O[C@H]3n1cc(F)c2c(=O)[nH]cnc21 (stereo partly drawn) [Ex3a, disodium (5R,7R,8R,12aR,14R,15R,15aR,16R)-14-(6-amino-9H-purin-9-yl)-15-fluoro-7-(5-fluoro-4-oxo-3,4-dihydro-7H-pyrrolo[2,3-d]pyrimidin-7-yl)-16-hydroxy-2-sulfidooctahydro-12H-5,8-methanofuro[3,2-1][1,3,6,9,11,2,10]pentaoxadiphosphacyclotetradecin-10-olate 2,10-dioxide]	0.58	anti-tumor effects were observed	anti-tumor effects were observed	
Nc1ncnc2c1ncn2[C@@H]1O[C@@H]2COP(=O)(S)O[C@@H]3[C@H](O)[C@@H](COP(=O)(S)O[C@H]2[C@H]1O)O[C@H]3n1cc(F)c2c(=O)[nH]cnc21 (stereo partly drawn) [Example 5, 7-((5R,7R,8R,12aR,14R,15R,15aS,16R)-14-(6-amino-9H-purin-9-yl)-15,16-dihydroxy-2,10-dioxido-2,10-disulfanyloctahydro-12H-5,8-methanofuro[3,2-1][1,3,6,9,11,2,10]pentaoxadiphosphacyclotetradecin-7-yl)-5-fluoro-3,7-dihydro-4H-pyrrolo[2,3-d]pyrimidin-4-one di-triethylamine salt (Optical Isomer)]	<0.01			107
Nc1ncnc2c1ncn2[C@@H]1O[C@@H]2COP(=O)(S)O[C@@H]3[C@H](O)[C@@H](COP(=O)(S)O[C@H]2[C@H]1F)O[C@H]3n1cc(F)c2c(=O)[nH]cnc21 (stereo partly drawn) [Example 14, 7-((2R,5R,7R,8R,10R,12aR,14R,15R,15aR,16R)-14-(6-amino-9H-purin-9-yl)-15-fluoro-16-hydroxy-2,10-dioxido-2,10-disulfanyloctahydro-12H-5,8-methanofuro[3,2-1][1,3,6,9,11,2,10]pentaoxadiphosphacyclotetradecin-7-yl)-5-fluoro-3,7-dihydro-4H-pyrrolo[2,3-d]pyrimidin-4-one di sodium salt]	<0.01	anti-tumor effects were observed	anti-tumor effects were observed	
